Data published in publication PMC9295786, “Discovery of potent BET bromodomain 1 stereoselective inhibitors using DNA-encoded chemical library selections” (Proceedings of the National Academy of Sciences of the …, 2022).
Where “and” joins values, the source holds several entries; their conditions need not be identical. Equal values may be shown once. Read-outs that look alike come from different tables or passages of the source.

What was measured:
[1] = target: T1, BRDT-BD2 (Homo sapiens, UniProt Q58F21); experiment: AlphaScreen competition assay with biotinylated JQ1; format: binding
T1 construct: two similar tandem bromodomains (BD1 and BD2); made in house; host or cells: bacteria (pET15b or pET28b vector)

[2] = target: T2, BRD4-BD2 (Homo sapiens, UniProt O60885); experiment: as above; format: binding; details: read-out: BRD4-BD2 IC50
T2 construct: two similar tandem bromodomains (BD1 and BD2); made in house; host or cells: bacteria (pET15b or pET28b vector)

[3] = tested on: MV4;11 cells; experiment: Cell viability by CellTiterGlo; format: cell-based; details: for EC50: Table S6, NE = not efficient, read-out: MV4-11 EC50 (viability); for IC50: 72 h of treatment, CellTiterGlo, normalized to DMSO, read-out: Viability IC50 MV4;11
[4] = target: BRD4-BD1 (Homo sapiens, UniProt O60885); experiment: AlphaScreen competition assay with biotinylated JQ1; format: binding; set-up: the bromodomain 1 (BD1) of BRD4; made in house; host or cells: bacteria (pET15b or pET28b vector); details: for BRD4-BD1 vs. BRD4-BD2 fold (BRD4-BD1 selectivity): ratio of AlphaScreen IC50 values, NE = not efficient; for IC50: read-out: BRD4-BD1 IC50
[5] = target: BRDT-BD1 (Homo sapiens, UniProt Q58F21); experiment: as above; format: binding; set-up: the first bromodomain of BRDT (BRDT-BD1); made in house; host or cells: bacteria (pET15b or pET28b vector); details: for BRDT-BD1 vs. BRDT-BD2 fold (BRDT-BD1 selectivity): ratio of AlphaScreen IC50 values, NE = not efficient
[6] = tested on: MOLM-13 cells; experiment: Cell viability by CellTiterGlo; format: cell-based; details: 72 h of treatment, CellTiterGlo, normalized to DMSO, read-out: Viability IC50 MOLM-13
[7] = tested on: THP1 cells; experiment: Cell viability by CellTiterGlo; format: cell-based; details: 72 h of treatment, CellTiterGlo, normalized to DMSO, read-out: Viability IC50 THP1
[8] = tested on: Kasumi1 cells; experiment: Cell viability by CellTiterGlo; format: cell-based; details: 72 h of treatment, CellTiterGlo, normalized to DMSO, read-out: Viability IC50 Kasumi1
[9] = Metabolic stability assay in liver microsomes (MLM); format: in vitro ADME; details: mouse liver microsomes 0.5 mg protein/mL, compound 2.0 μM, NADPH 1.0 mM; read-out: MLM t1/2 (half-life)
[10] = Metabolic stability assay in liver microsomes (HLM); format: in vitro ADME; details: human liver microsomes 0.5 mg protein/mL, compound 2.0 μM, NADPH 1.0 mM; read-out: HLM t1/2 (half-life)
[11] = tested on: MV4;11 cells; experiment: Cell cycle analysis by flow cytometry; format: cell-based; details: 24 h of treatment at the IC50
[12] = tested on: MV4;11 cells; experiment: Apoptosis detection (Annexin V) by flow cytometry; format: cell-based; details: 72 h of treatment
[13] = tested on: MOLM-13 cells; experiment: Apoptosis detection (Annexin V) by flow cytometry; format: cell-based; details: 72 h of treatment
[14] = tested on: MYC expression in MOLM-13 cells; experiment: MYC expression by RT-qPCR; format: cell-based; details: 8 h of treatment
[15] = tested on: MYC expression in MV4;11 cells; experiment: MYC expression by RT-qPCR; format: cell-based; details: 8 h of treatment
[16] = tested on: BD2; set-up: method as in PMID 24391744; details: cited from earlier work
[17] = AlphaScreen, biotinylated JQ1 10 nM, His-bromodomain 10 nM, NE = not efficient, read-out: BRDT-BD2 IC50
[18] = AlphaScreen, biotinylated JQ1 10 nM, His-bromodomain 10 nM, NE = not efficient
[19] = AlphaScreen, biotinylated JQ1 10 nM, His-bromodomain 10 nM

SMILES | IC50 ([1]; read-out: BRDT-BD2 IC50) [µM] | IC50 [2] [µM] | BRD4-BD1 vs. BRD4-BD2 fold (BRD4-BD1 selectivity) [4] | IC50 [4] [µM] | IC50 [5] [µM] | BRDT-BD1 vs. BRDT-BD2 fold (BRDT-BD1 selectivity) [5] | other results
CNC(=O)[C@@H](CC1CCN(C(=O)Cc2ccc3[nH]c(=O)cc(C)c3c2)CC1)NC(=O)c1ccc(-c2ccc(Cl)c(F)c2)cn1 [CDD-982] | 22.6 | 14 | 1,423 fold | 0.0098 | 0.0047 | 4,799 fold | EC50 ([3]; Homo sapiens, MV4-11): 0.1 µM
CNC(=O)C(CC1CCN(C(=O)Cc2ccc3[nH]c(=O)cc(C)c3c2)CC1)NC(=O)c1ccccn1 (stereo not drawn) [CDD-784] | – | – | 2,078 fold | – | – | 960 fold | IC50 [1, 17]: 19.4 µM; IC50 [2, 18]: 32.6 µM; IC50 [4, 19]: 0.0157 µM; IC50 [5, 19]: 0.0202 µM
Cc1sc2c(c1C)C(c1ccc(Cl)cc1)=N[C@@H](CC(=O)OC(C)(C)C)c1nnc(C)n1-2 [JQ1, reference compound] | – | – | – | – | – | – | IC50 [3]: 0.0619 µM; IC50 [6]: 0.13 µM; IC50 [7]: 0.13 µM; IC50 [8]: 0.0298 µM
Cc1nnc2n1-c1ccc(Cl)cc1C(c1ccccc1)=NC2 [Alprazolam, reference compound] | – | – | – | – | – | – | half-life at 2 μM [9]: 5.03 h; half-life at 2 μM [10]: 14.4 h
CNC(=O)C(CC1CCN(C(=O)Cc2ccc3[nH]c(=O)cc(C)c3c2)CC1)NC(=O)c1ccc(-c2ccc(C)cc2C)cn1 (stereo not drawn) [CDD-724] | 12.8 | 34.3 | 4035 fold | 0.0085 | 0.0057 | 2,246 fold and > 2,000 fold | –
Cc1cc(=O)[nH]c2ccc(CC(=O)N3CCC(CCNC(=O)c4ccc5ccccc5n4)CC3)cc12 [CDD-855] | – | – | – | – | – | – | IC50 [4, 19]: 0.122 µM; IC50 [5, 19]: 0.0813 µM
CNC(=O)[C@@H](CC1CCN(C(=O)Cc2ccc3[nH]c(=O)cc(C)c3c2)CC1)NC(=O)c1ccc(-c2ccc(Cl)cc2)cn1 [CDD-981] | 33.8 | 19.9 | 1,553 fold | 0.0128 | 0.0051 | 6,633 fold | EC50 ([3]; Homo sapiens, MV4-11): 0.058 µM
Cc1cc(=O)[nH]c2ccc(CC(=O)N3CCC(CCNC(=O)c4cc5ccccc5cn4)CC3)cc12 [CDD-854] | – | – | – | – | – | – | IC50 [4, 19]: 0.119 µM; IC50 [5, 19]: 0.116 µM
Cc1ccc(-c2ccc(C(=O)NC(C)CC3CCN(C(=O)Cc4ccc5[nH]c(=O)cc(C)c5c4)CC3)nc2)c(C)c1 (stereo not drawn) [CDD-906] | – | – | 381 fold | – | – | 756 fold | IC50 [1, 17]: 23.4 µM; IC50 [2, 18]: 20 µM; IC50 [4, 19]: 0.0524 µM; fold loss of selectivity on BRDT-BD1 ([5]; AlphaScreen): 6.5 fold; IC50 [5, 19]: 0.031 µM
Cc1cc(=O)[nH]c2ccc(CC(=O)N3CCC(CCNC(=O)c4ccccn4)CC3)cc12 [CDD-767] | 6.8 | 75.2 | 5,449 fold | 0.0138 | 0.0354 | 192 fold | –
CNC(=O)[C@H](CC1CCN(C(=O)Cc2ccc3[nH]c(=O)cc(C)c3c2)CC1)NC(=O)c1ccc(-c2ccc(C)cc2C)cn1 [CDD-786] | 6.3 | 6.1 | 275 fold | 0.0222 | 0.0966 | 65 fold | IC50 ([3]; Homo sapiens, MV4-11): 0.853 µM; IC50 ([6]; Homo sapiens, MOLM-13): 0.729 µM; IC50 ([7]; Homo sapiens, THP-1): 1.2 µM; IC50 ([8]; Homo sapiens, Kasumi 1): 0.262 µM
CNC(=O)C(CC1CCN(C(=O)Cc2ccc3[nH]c(=O)ccc3c2)CC1)NC(=O)c1ccc(-c2ccccc2)cn1 (stereo not drawn) [CDD-986] | – | – | 2,352 fold | – | – | 3,875 fold | IC50 [1, 17]: 20.9 µM; IC50 [2, 18]: 16.7 µM; EC50 [3]: 0.143 µM; fold loss of selectivity over BRD4-BD2 ([4]; AlphaScreen): 1.6 fold
CNC(=O)[C@@H](CC1CCN(C(=O)Cc2ccc3[nH]c(=O)cc(C)c3c2)CC1)NC(=O)c1ccc(-c2ccccc2)cn1 [CDD-956] | – | – | – | – | – | – | half-life at 2 μM [9]: 0.583 h; Effect on the cell cycle, MV4;11 [11]: G1 arrest; Induction of apoptosis (Annexin V+ cells), MV4;11 [12]: apoptosis; Induction of apoptosis (Annexin V+ cells), MOLM-13 [13]: apoptosis; MYC expression, MOLM-13 [14]: suppressed; MYC expression, MV4;11 [15]: suppressed
COc1cc(OC)c2c(=O)[nH]c(-c3cc(C)c(OCCO)c(C)c3)nc2c1 [RVX-208] | – | – | – | – | – | – | IC50 ([1]; AlphaScreen, read-out: IC50 in our BRDT-BD2 AlphaScreen assay): 2 µM; selectivity over BD1 domains ([16]; BD2 over BD1): ~10 fold; BD2 potency [16]: > 0.1 µM
Cc1cc(=O)[nH]c2ccc(CC(=O)N3CCN(CCNC(=O)c4ccccn4)CC3)cc12 [CDD-778] | – | – | – | – | – | 13.8 fold | IC50 [1, 17]: 71.8 µM; IC50 [4, 19]: 1.3 µM; IC50 [5, 19]: 5.2 µM
Cc1ccc(-c2ccc(C(=O)NCCC3CCN(C(=O)Cc4ccc5[nH]c(=O)cc(C)c5c4)CC3)nc2)c(C)c1 [CDD-813] | 67.8 | 8.69 | 312 fold | 0.0278 | 0.0337 | 2012 fold | –
Cc1cc(=O)[nH]c2ccc(CC(=O)N3CCC(CCNC(=O)c4nccc5ccccc45)CC3)cc12 [CDD-853] | – | – | – | 0.341 | 0.638 | – | –
Cc1cc(=O)[nH]c2ccc(CC(=O)N3CCC(CCNC(=O)c4ccccc4)CC3)cc12 [CDD-779] | 10.4 | – | – | 0.0479 | 0.148 | 70 fold | –
